Results as given in US20240238271A1, “PHARMACEUTICAL COMPOSITION FOR ENHANCING CELL KILLING, AND USE THEREOF” (SHANGHAI JUNCELL THERAPEUTICS CO., LTD., priority 2020, published 2024).

Key:
type I HLA (HLA-A, B, C) [1] = assay: Type I HLA on surface of tumor cells of T018 PDX mice, flow cytometry MFI; format: in vivo, mouse; settings: 60 mg/kg/day i.p. q.d. 30 days, vs PBS control
Description: (§1) PDX mouse models derived from tissue T008 and tissue T018 were established according to the method of example 3. The model animals were grouped according to the following Table 7 in which mice were treated with hydroxychloroquine alone. Hydroxychloroquine used in the experiment was purchased from MCE (Cat. No.: HY-W031727).
(§2) Mice were sacrificed 30 days after treatment, and tumor tissues were taken out and digested into a single-cell suspension with dispase. After staining with a general HLA-A, B, C flow cytometric antibody (Biolegend, PE-anti-human HLA-A, B, C Antibody Cat. NO. 311406), the phenotypes and fluorescence intensity (MFI) were measured by flow cytometry, and the MFI values of different groups of HLA-type I positive cells were counted and compared.

type I HLA (HLA-A, B, C) [2] = assay: Type I HLA on surface of tumor cells of T008 PDX mice, flow cytometry MFI; format: in vivo, mouse; settings: 60 mg/kg/day i.p. q.d. 30 days, vs PBS control
Description: as §1, §2

[3] = test system: primary tumor cells such as pancreatic tumor cells; assay: Killing effect of TILs on primary tumor cells treated with hydroxychloroquine; format: cell-based, human
Description: In a specific embodiment, TILs are obtained from tumor samples of pancreatic cancer patients with reference to the method disclosed in CN110785486A (which is incorporated herein by reference in its entirety). Primary tumor cells such as pancreatic tumor cells are treated with the TILs alone (control group) or in combination with a compound of Formula (I) (e.g., hydroxychloroquine) (compound group). The cells of the compound group are treated with different concentrations of the compound of Formula (I) (e.g., hydroxychloroquine) for more than 12 hours (e.g., 24 hours). Under different effect-to-target ratios were the killing effects of TILs on target cells in the control group and the compound group detected.

HLAs = assay: HLA expression (positive rate) of tumor cells treated with hydroxychloroquine; format: cell-based, human; settings: compound group vs control group

In the case of `CCN(CCO)CCCC(C)Nc1ccnc2cc(Cl)ccc12` (centres unmarked) [hydroxychloroquine], the “expression levels of type I HLA on the surface of tumor cells” value (type I HLA (HLA-A, B, C) [1]) is reported as “significantly increased”, the “expression levels of type I HLA on the surface of tumor cells” value (type I HLA (HLA-A, B, C) [2]) is reported as “significantly increased” and the “concentration of hydroxychloroquine at which the effect on TIL killing is more clear” value ([3]; compound group vs control group (TILs alone)) is reported as “above 20 μM”. The “killing effects of TILs on target cells” value ([3]; primary tumor cells treated with hydroxychloroquine for more than 12 hours (e.g., 24 hours), different effect-to-target ratios, vs TILs alone) was “more effectively killed by TILs” and the “positive rate of the cells (HLA expression)” value (HLAs) was “significantly higher”.
